From ChEMBL document CHEMBL1201862, “PubChem BioAssay data set” (2004)
Each block holds one compound with its values, some of them ahead of it. The source made the active and inactive calls.

How the values were obtained:
[1] = biological target: FAD-linked sulfhydryl oxidase ALR (Homo sapiens, UniProt P55789); experiment: ALR-catalysed DTT oxidation blockers – biochemical, H2O2 detection, luminescence, cherry-pick, dose response (AID 493248)
[2] = Luminescence Cell-Based Dose Confirmation HTS to Identify Inhibitors of Platelet Dense Granule Release. [Related pubchem assays: 1663 (Primary HTS), 1678 (Summary of Project)]; type: functional
[3] = biological target: Luciferin 4-monooxygenase (Photinus pyralis, UniProt P08659); experiment: inhibition of purified Photinus pyralis luciferase – biochemical, luminescence, dose response (AID 1891)
Chain of Luciferin 4-monooxygenase (P08659 whole entry): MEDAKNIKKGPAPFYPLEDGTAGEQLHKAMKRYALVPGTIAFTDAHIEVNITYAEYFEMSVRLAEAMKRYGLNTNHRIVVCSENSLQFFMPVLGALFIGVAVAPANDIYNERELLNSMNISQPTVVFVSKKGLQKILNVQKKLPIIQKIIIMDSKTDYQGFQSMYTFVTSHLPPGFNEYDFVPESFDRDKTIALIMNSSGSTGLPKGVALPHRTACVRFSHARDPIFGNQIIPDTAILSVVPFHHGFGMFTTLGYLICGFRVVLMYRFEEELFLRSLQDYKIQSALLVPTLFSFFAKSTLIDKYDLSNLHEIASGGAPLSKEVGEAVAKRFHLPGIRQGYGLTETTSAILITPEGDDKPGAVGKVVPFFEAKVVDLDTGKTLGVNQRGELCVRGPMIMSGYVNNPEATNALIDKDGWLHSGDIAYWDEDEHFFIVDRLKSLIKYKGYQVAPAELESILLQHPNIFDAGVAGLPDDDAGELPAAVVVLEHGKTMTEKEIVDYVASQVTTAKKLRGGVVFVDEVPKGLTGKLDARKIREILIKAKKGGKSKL

Genome polyprotein = Genome polyprotein (dengue virus type 2, UniProt P29990); experiment: flavivirus cap methylation enzyme inhibition – biochemical, confirmation dose response, primary screen (AID 588689); type: functional
Chain of Genome polyprotein (P29990 2492-3391 limits assumed): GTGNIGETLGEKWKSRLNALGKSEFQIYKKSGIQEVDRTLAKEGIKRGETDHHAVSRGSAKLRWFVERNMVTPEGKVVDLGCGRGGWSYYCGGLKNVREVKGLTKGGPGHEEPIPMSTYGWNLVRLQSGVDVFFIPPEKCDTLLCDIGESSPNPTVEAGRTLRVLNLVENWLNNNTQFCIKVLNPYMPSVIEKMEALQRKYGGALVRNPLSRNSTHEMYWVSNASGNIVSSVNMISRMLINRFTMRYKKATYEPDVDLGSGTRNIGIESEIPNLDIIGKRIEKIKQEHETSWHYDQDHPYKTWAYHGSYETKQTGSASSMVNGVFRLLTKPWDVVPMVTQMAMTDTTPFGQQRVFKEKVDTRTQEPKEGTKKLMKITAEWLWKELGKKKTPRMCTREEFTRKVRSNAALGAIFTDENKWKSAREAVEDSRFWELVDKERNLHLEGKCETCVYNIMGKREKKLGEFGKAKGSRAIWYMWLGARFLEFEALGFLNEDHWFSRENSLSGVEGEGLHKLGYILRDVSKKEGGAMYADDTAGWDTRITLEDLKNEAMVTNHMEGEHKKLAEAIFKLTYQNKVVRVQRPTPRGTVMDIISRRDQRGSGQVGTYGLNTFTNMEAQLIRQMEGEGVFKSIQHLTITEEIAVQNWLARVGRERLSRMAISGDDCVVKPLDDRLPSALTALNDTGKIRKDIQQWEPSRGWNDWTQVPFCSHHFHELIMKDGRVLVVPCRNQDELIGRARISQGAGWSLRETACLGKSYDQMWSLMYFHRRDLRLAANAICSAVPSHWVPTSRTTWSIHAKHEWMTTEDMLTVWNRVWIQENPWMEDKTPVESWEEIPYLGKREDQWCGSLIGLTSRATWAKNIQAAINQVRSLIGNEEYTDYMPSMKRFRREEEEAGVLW

[4] = biological target: T1, High affinity choline transporter 1 (Homo sapiens, UniProt Q9GZV3); experiment: human choline transporter blockers, potency – cell-based, 5-point CRC, membrane potential dye, dose response (AID 504840); type: functional
T1 sequence (Q9GZV3 whole entry): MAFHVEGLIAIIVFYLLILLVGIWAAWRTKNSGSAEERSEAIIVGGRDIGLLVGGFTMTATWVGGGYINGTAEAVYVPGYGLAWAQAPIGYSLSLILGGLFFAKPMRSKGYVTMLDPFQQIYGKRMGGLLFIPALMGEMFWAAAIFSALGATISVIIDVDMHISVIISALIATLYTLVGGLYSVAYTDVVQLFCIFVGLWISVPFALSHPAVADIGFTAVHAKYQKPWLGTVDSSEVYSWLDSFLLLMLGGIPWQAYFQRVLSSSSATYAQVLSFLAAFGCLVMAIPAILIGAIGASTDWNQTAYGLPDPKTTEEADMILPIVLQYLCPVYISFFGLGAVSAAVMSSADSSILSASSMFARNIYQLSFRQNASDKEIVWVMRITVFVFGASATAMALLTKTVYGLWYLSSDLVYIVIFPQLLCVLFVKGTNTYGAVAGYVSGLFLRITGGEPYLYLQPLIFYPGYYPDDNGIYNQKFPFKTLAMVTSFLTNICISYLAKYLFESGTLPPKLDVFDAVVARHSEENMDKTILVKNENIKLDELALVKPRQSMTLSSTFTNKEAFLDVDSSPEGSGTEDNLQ

Protein skinhead-1 = biological target: T2, Protein skinhead-1 (Caenorhabditis elegans, UniProt P34707); type: functional
T2 sequence (P34707 whole entry): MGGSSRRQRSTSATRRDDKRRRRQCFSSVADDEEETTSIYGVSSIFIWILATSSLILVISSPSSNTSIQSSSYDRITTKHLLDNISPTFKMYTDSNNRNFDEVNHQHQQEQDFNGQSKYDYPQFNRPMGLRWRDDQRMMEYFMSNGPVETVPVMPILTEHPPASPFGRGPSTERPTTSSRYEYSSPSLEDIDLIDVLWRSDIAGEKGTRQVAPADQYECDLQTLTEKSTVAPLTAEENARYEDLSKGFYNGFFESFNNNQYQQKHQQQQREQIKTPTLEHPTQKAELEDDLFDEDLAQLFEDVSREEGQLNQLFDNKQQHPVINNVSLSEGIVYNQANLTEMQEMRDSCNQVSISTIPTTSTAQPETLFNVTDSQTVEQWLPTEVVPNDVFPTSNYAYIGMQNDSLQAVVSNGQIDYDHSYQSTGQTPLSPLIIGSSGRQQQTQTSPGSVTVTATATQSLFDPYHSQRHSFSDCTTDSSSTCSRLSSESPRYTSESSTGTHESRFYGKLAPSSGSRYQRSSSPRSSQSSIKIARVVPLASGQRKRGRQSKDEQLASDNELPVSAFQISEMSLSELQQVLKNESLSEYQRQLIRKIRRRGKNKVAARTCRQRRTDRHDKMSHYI

Leucine aminopeptidase = biological target: T3, Leucine aminopeptidase (Plasmodium falciparum 3D7, UniProt Q8IL11); experiment: P. falciparum M17LAP inhibitors, primary screen, biochemical, fluorogenic H-Leu-NHMec substrate, 1536-well (AID 1619); type: functional
T3 sequence (Q8IL11 whole entry): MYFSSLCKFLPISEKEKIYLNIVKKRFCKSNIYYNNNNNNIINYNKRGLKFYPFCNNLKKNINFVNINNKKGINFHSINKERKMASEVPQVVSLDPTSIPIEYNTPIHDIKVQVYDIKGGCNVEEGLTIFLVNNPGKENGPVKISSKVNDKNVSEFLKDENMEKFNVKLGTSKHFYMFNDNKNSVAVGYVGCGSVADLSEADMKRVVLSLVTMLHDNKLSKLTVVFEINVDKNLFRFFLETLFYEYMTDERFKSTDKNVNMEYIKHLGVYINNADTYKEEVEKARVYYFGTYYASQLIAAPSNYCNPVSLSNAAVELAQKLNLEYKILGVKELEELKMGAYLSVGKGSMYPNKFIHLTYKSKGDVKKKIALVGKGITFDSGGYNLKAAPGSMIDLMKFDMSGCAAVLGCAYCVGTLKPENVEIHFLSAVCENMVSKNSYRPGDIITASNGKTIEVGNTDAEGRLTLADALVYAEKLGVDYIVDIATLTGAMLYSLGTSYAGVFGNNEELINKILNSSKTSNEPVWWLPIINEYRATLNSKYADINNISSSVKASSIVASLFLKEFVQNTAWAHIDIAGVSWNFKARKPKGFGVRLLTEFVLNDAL

BJ [5] = experiment: BJ-TERT fibroblast viability loss – cell-based, RAS-independent, luminescence, dose response (AID 1933); type: functional; settings: Homo sapiens
BJ [6] = experiment: BJ-TERT-LT-ST fibroblast viability loss – cell-based, RAS-independent, luminescence, dose response (AID 1935); type: functional; settings: Homo sapiens;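 note: BJ fibroblasts immortalized with TERT plus LT and ST oncogenes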
[7] = DRD fibroblast viability loss – cell-based, non-viral oncogenic, luminescence, dose response (AID 1934); type: functional; settings: Homo sapiens
BJ [8] = experiment: cells; type: functional, cell-based; settings: Homo sapiens

Chain of FAD-linked sulfhydryl oxidase ALR (P55789 whole entry): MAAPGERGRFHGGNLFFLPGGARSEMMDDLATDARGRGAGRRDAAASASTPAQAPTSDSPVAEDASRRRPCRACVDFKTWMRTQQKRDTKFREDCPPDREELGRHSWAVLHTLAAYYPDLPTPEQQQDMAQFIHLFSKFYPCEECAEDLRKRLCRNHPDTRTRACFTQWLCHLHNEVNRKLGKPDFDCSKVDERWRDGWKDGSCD

Structure (SMILES): COc1ccc(-c2cc(-c3ccc(N)cc3)nc(N)c2C#N)cc1OC
AC50 [1]: 794 nM (active)

Structure (SMILES): CC(=O)Nc1ccc(C(=O)N(C)c2ccccc2)cc1
EC50 [2]: > 112 µM (not active)
EC50 [3]: > 112 µM (not active)

Structure (SMILES): COc1ccc(/C=N/Nc2nccnc2Cl)c(OC)c1
EC50 [2]: 2.65 µM (active)
EC50 [3]: 6.55 µM (active)

Structure (SMILES): Cc1ccc(C(=O)Nc2ncc([N+](=O)[O-])s2)cc1
IC50 (Protein skinhead-1): > 100 µM (inactive)
IC50 [4]: 10.5 µM (active)

Structure (SMILES): CCc1cc2c(N3CCN(c4nnc(CC)s4)CC3)ncnc2s1
IC50 [4]: 3.63 µM (active)

Structure (SMILES): COc1ccc(C(=O)N(C)C2CCCc3ccccc32)cc1OC1CCN(C(C)C)CC1 (centres undefined)
IC50 [4]: 12.6 µM (active)

Structure (SMILES): COC(=O)c1ccccc1NC(=O)CN1C(=O)c2ccccc2S1(=O)=O
IC50 (Leucine aminopeptidase): 18.1 µM (active)

Structure (SMILES): CCOc1ccc(S(=O)(=O)NCCC(=O)N2CCCN(C)CC2)cc1
EC50 [2]: > 112 µM (not active)
EC50 [3]: > 112 µM (not active)

Structure (SMILES): Nc1nn(-c2ccccc2)c(N)c1N=Nc1cccc(F)c1
EC50 (BJ [5]): 3.92 µM (active)
EC50 (BJ [6]): 36.7 µM (inconclusive)
EC50 [7]: 1.94 µM (active)
EC50 (BJ [8]): 124 µM (active)

Structure (SMILES): CCCCCc1nc2sc3c(c2c(=O)n1N)CCC3
EC50 [2]: > 112 µM (not active)
EC50 [3]: > 112 µM (not active)

Results, then the compound that gave them:

IC50 (Genome polyprotein): 79.1 µM (active)
Structure (SMILES): Cc1ccc(N2NC(=O)/C(=C/c3ccc(-c4ccc(Cl)c(C(=O)O)c4)o3)C2=O)cc1C

IC50 [4]: 12.9 µM (active)
Structure (SMILES): CC1(C)c2[nH]c3ccccc3c2C[C@@H]2C(=O)N(Cc3ccccc3)C(=O)N21

AC50 [1]: 2220 nM (active)
Structure (SMILES): O=C(O)CCc1ccc(-c2ccc(Cl)cc2)o1

AC50 [1]: 243 nM (active)
Structure (SMILES): COc1ccc(S(=O)(=O)N2CCN=C2SCc2cccnc2)cc1

AC50 [1]: 4410 nM (active)
Structure (SMILES): CCN(CC)S(=O)(=O)c1cccc(-c2csc(C)n2)c1

IC50 (Leucine aminopeptidase): 9.15 µM (active)
Structure (SMILES): Cc1ccc(NC(=O)CSc2nnc(NC(=O)CN3CCOCC3)s2)cc1
